Measurements published in US6576263B2, “Delivery systems using preformed biodegradable polymer compositions and methods” (3M Innovative Properties Company, priority 2000, dated 2003).

How the values were obtained:
Format in all cases: physicochemical
[1] = Release of 5FU from albumin plugs containing alginic acid without added calcium; settings: over a 5-hr period; alginate/5FU without calcium in albumin plug, PBS pH 7.4
Protocol: (§1) One milliliter of 1.04 mg/ml 5-fluorouracil was mixed with 30 mg of alginic acid. The pH of the mixture was brought to 6.8, and then placed into a vacuum desiccator with DRIERITE to dry for 24 hr. The resulting alginate/5FU film was ground up and mixed into the 30% albumin solution (see Example 2) just prior to being placed into the 5 ml syringe forms and crosslinked with an equivalent volume of PEG-(SS)2 crosslinker (136 mg/ml). Each plug was placed into a separate vial, and 5 ml of phosphate buffered saline (PBS), at pH 7.4, was added at sample time 0 (t0). The vials were maintained at room temperature and were shaken continuously. At each sample time, the entire content of the vial was removed and replaced with 5 ml of fresh PBS. Samples were taken at 1 hr, 2 hr, 3 hr, 4 hr, 5 hr, and 24 hr.
The 5FU was analyzed as in Example 1.

[2] = Release of 5FU from preformed, dried albumin/PEG-(SS)2 plugs reconstituted with 5FU solution; settings: rehydrated albumin/PEG-(SS)2 plug, PBS pH 7.4, room temperature
Protocol: Two polymer plugs were preformed in a modified 5-milliliter (ml) poly syringe, wherein the syringe barrel was cut to form an open cylindrical receptacle, and then by mixing 0.5 ml of 29% albumin solution (obtained from American Biological Technology, Seguin, Tex. or by diafiltration (Procedure B) as described above) and 0.5 ml of 136 mg/ml PEG-(SS)2 crosslinker. After crosslinking was complete (15 minutes) the plugs were removed from the syringe and pushed out. The polymer plugs were dried under vacuum for 24 hours (hr). The plugs were reconstituted with […] of a 5FU solution (1.04 mg/ml from Sigma Chemical Co, St. Louis, Mo.) so that each plug contained a total of 187.6 micrograms (μg), or 165.5 μg of 5FU. Each plug was placed into a separate vial, and five ml of phosphate buffered saline (PBS), at pH 7.4, were added at sample time 0 (t0). The vials were maintained at room temperature and were shaken continuously. At each sample time, the entire content of the vial was removed and replaced with 5 ml of fresh PBS. Samples were taken at 0.25 hr, 0.5 hr, 1 hr, 2 hr, 3 hr, 4 hr, 5 hr, 6 hr, and 24 hr. Ana of 5FU was analyzed by high-pressure liquid chromatography, following the method of Bernatchez et al., Int. J. Pharm., 106, 161-166 (1994).

[3] = Release of 5FU from albumin plugs containing alginic acid with added calcium; settings: over a 5-hr period; alginate/Ca/5FU in albumin plug, PBS pH 7.4
Protocol: as §1, with “One ml of 1.04” for “One milliliter of 1.04”, “6.8, and 150 μl of a saturated calcium chloride/water solution was added to gel the alginate. The gel was divided into 3 approximately equal volumes and then placed” for “6.8, and then placed”, “The resulting alginate/Ca/5FU films were ground up” for “The resulting alginate/5FU film was ground up”, “into the 5-ml forms and” for “into the 5 ml syringe forms and”, “vial, and five mls of phosphate” for “vial, and 5 ml of phosphate”
The 5FU was analyzed as described in Example 1.

[4] = Release of 5-fluorouracil from plug made with 5FU mixed with the crosslinker and albumin; settings: over an 8-hr period; 5FU added with crosslinker, PBS pH 7.4, room temperature
Protocol: 136 mg of PEG-(SS)2 crosslinker was dissolved in 1 ml of a 1.04 mg/ml 5-Fluorouracil solution. This solution was then mixed into 1 ml of 30% albumin solution (see Example 2) already in a 5-ml form. The resulting hydrogel plug was removed from the form after 15 minutes and cut into three equal sized pieces (approximately 0.5 cm in thickness). Each piece was then placed into a vial and 4 ml of a PBS buffer (pH 7.4) added at sample time 0 (t0). The vials were maintained at room temperature and were shaken continuously. At each sample time, the entire content of the vial was removed and replaced with 4 ml of fresh PBS. Samples were taken at 1 hr, 2 hr, 4 hr, and 8 hr.

[5] = Release of cefazolin from albumin plugs made with 4-arm PEG crosslinker; settings: albumin/4-arm PEG plug, PBS pH 7.4, room temperature
Protocol: Two polymer plugs were preformed from 0.5 ml of 30% albumin solution (Procedure B) and 0.5 ml of 110 mg/ml 4-arm-N-hydroxysuccinimidyl ester of poly(ethylene glycol)-succinate crosslinker (Shearwater Polymers, Inc., Huntsville, Ala.). Approximately 10 mg of sodium cefazolin (Sigma Chemical. Co., St. Louis, Mo.) was dissolved in the albumin before the crosslinker was added to form the cylindrical plugs. Each formed plug was placed into a separate vial, and 8 mls of phosphate buffered saline (PBS) at pH 7.4 was added at sample time (t0). The vials were maintained at room temperature and were shaken continuously. At each sample time, the entire content of the vial was removed and replaced with eight ml of fresh PBS. Samples were taken at 0.25, 0.5, 1, 2, 3, 4, 5, and 24 hours and approximately every 24 hours thereafter up to 144 hours.
Cefazolin was analyzed by high-pressure liquid chromatography, following the method of Liang et al, J. Chromatog. B., 656, 45-465 (1994). The column was a Waters C-18 (3.9×300 mm) column sold under the tradename MICROBONDAPAK and the column temperature was maintained at 25° C. The mobile phase consisted of 0.02M sodium phosphate buffer (pH=5.0 and methanol (77:23). The wavelength used for detection was 270 nm and the column flow rate was 1.0 ml/min.

With `O=c1[nH]cc(F)c(=O)[nH]1` [Example 5FU, 5-fluorouracil] the 5FU released [1] was “about 40%”, the “time period over which 5FU was released” value [2] was 5 h and the 5FU released [3] was “about 60%”. The 5-fluorouracil released [4] was “about 55%”.

In the case of `Cc1nnc(SCC2=C(C(=O)O)N3C(=O)[C@@H](NC(=O)Cn4cnnn4)[C@H]3SC2)s1` [cefazolin], the total cefazolin released ([5]; over 144 hours) is reported as 95.6% and the cefazolin released ([5]; over the first 5-hour time period) is reported as “approximately 67%”.
